System: hMMP-12
Assay: hMMP-12 inhibition assay in diluted mouse plasma
Type: biochemical, human
Details: mouse plasma versus buffer

Q: `NC(=O)[C@H](CCC(=O)O)NC(=O)[C@H](CCC(=O)O)NC(=O)[C@H](Cc1cc(-c2ccc(-c3cccc(Cl)c3)cc2)no1)CP(=O)(O)c1ccc(Br)cc1` [RXP470.1] was tested. Which “drop in affinity towards hMMP-12 in mouse plasma (factor)” value did it give?
A: 470

Source: paper PMC7054845 (Journal of medicinal chemistry, 2019)
